Laboratory results: patent publication US11618761B2, “Phosphonium ion channel blockers and methods for use” (Nocion Therapeutics, Inc., priority 2019, dated 2023)
Where a name gives a salt, the structure may show the parent alone.

Assays:
NaV1.7 [1] = biological target: T1, NaV1.7 (Homo sapiens, UniProt Q15858); assay: Whole cell patch clamp, internal block of NaV1.7 current (compound in internal solution); type: cell-based; conditions: compound applied internally, 5 Hz stimulation, read-out: Nav1.7 Intracellular Inhibition; for inhibition at 10 µM: % inhibition at 10 μM test concentration; for inhibition at 3 µM: % inhibition at 3 μM test concentration
T1 construct: expressed in transfected cells; tetracycline-inducible, kept under hygromycin and blasticidin selection
Description: (§1) NaV1.7 was expressed upon induction with tetracycline. Cells were cultured in DMEM containing 10% dialyzed Fetal Bovine Serum (VWR, Radnor, Pa.), 1% Glutamax (VWR, Radnor, Pa.), 1% Penicillin-Streptomycin (VWR, Radnor, Pa.), 100 mg/L Hygromycin (Thermo Fisher Scientific, Waltham, Mass.) and 5 mg/L Blasticidin (Alfa Aesar, Haverhill, Mass.). Cells were grown and maintained at 37° C. in a humidified environment containing 10% CO2 in air. Cells were detached from the culture flask for passage and harvested using 0.05% Trypsin-EDTA (Thermo Fisher Scientific, Waltham, Mass.). To induce NaV1.7, cells were induced with tetracycline (0.1-1 μg/mL, IBI Scientific, Peosta, Iowa) the day before recording and plated onto 24-well plates. Cells were washed with DPBS (VWR, Radnor, Pa.), trypsinized and then triturated five times in 10 mL of growth media to break apart cell aggregates. For one 24-well plate, 2 mL of cell suspension was mixed with 23 mL of fresh growth media and 0.1-1 μg/mL tetracycline added. 1 ml of mixed media with cells was then added to each well of a 24-well plate, with a 12 mm coverslip already placed in the bottom of the well. Cells were then incubated in 37° C. and 10% CO2 overnight.
The intracellular solution contained the following (in mM) CsCl 135, NaCl 10, EGTA 10, HEPES 10, MgCl2 2, adjusted to pH 7.2 with CsOH. The external solution was a normal Ringer solution containing (in mM) NaCl 155, HEPES 10, glucose 10, KCl 3.5, CaCl2) 1.5, MgCl2 1 adjusted to pH 7.4 with NaOH. CsCl was from Alfa Aesar, Haverhill, Mass. All other chemicals were from Sigma-Aldrich, St. Louis, Mo. In order to test the degree of internal block by test compounds the compounds were dissolved in internal solution at the indicated test concentration. […] In order to test the degree of external block by test compounds the compounds were dissolved in external solution at the indicated test concentration.
18-24 hours after cells were induced with tetracycline, coverslips were placed into a chamber filled with Normal Ringer solution at room temperature and the chamber was placed on a microscope. Pipettes were pulled from borosilicate glass on a P97 puller (Sutter Instrument, Novato, Calif.) and were polished with a MF-830 Microforge (Narishige International USA, Inc, Amityville, N.Y.) to have a resistance of 1.5-2.5 MΩ when filled with CsCl internal solution at room temperature. Healthy cells (those that are round and translucent with no visible blemishes) were chosen for seal formation. A seal was formed between the pipette and the cell, and a brief pulse of suction was used to “break in” and establish the whole-cell configuration. The membrane potential was held at −100 mV before the voltage protocol begins. Only cells with series resistance between 1.5-5 MΩ were retained for analysis. The voltage protocol was as follows: Cells were held at −100 mV for 12 ms followed by a hyperpolarizing step to −105 mV for 12 ms to monitor the leak. Cells were then stepped back to −100 mV for 40 ms. Cells were then depolarized to −20 mV for 10 ms and then returned to −100 mV for 26 ms (the FIGURE).
Once the recording was started, the voltage protocol was run at 30 second intervals for 5 minutes to get a stable baseline. This was followed by four 30-second periods of 5 Hz stimulation of the same voltage protocol separated by 1 minute of rest which was then followed by 0.33 Hz stimulation after the last train. Currents were recorded using PatchMaster software with Heka EPC10 (HEKA Electronics, Lambrecht, Germany). Only cells with inward current amplitudes at −20 mV between 400 pA and 4 nA were accepted. In addition, cells having leak currents greater than 10% of their current amplitudes were discarded.
(§2) The data was plotted using the Patchmaster software (HEKA Electronics, Lambrecht, Germany) and was analyzed by plotting the minimum current during the voltage step to −20 mV (peak inward current) as a function of time. […]

[2] = PAMPA membrane permeability assay; type: in vitro ADME; conditions: pH 7.4 buffer, GIT lipid, 4 hours incubation, 50 uM
Description: The PAMPA assay (pION, Inc., Woburn Mass.) was used to determine the ability of compounds of the invention to cross an artificial lipid membrane by passive diffusion. Test compounds were dissolved in DMSO (10 mM) and diluted 200-fold in buffer (pION Inc., pH 7.4) to provide 50 uM stock solutions. Buffer (150 μL) was added to a UV blank plate and stock solutions (150 μL) were transferred to a UV reference plate. The blank and reference spectrum were read using a spectrophotometer. Stock solutions (200 μL) were added to the donor plate of the PAMPA sandwich plate and an accept plate painted with GIT lipid (pION Inc, 5 μL) was placed on top. Buffer (200 μL) was added to the acceptor plate and the PAMPA sandwich plate was incubated for 4 hours. Aliquots (150 μL) from the acceptor plate were added to a UV plate and read as acceptor spectrum. Aliquots (150 μL) of the donor solutions were added to a UV analysis plate and read as donor spectrum. The permeability coefficient of test compounds was calculated using PAMPA Explorer™ software (version 3.5.0.4) based on the AUC of the reference plate, the donor plate, and the acceptor plate.

NaV1.7 [3] = biological target: T1, NaV1.7; assay: Whole cell patch clamp, external block of NaV1.7 current (compound in external solution); type: cell-based; conditions: % inhibition at 10 μM test concentration, compound applied externally for 5 minutes; read-out: Nav1.7 Extracellular Inhibition
Description: as §1, with “For one 24-well plate, 2 mL of cell suspension was mixed with 23 mL of fresh growth media and 0.1-1 μg/mL tetracycline added. 1 ml of mixed media with cells was then added to each well of a 24-well plate, with a 12 mm coverslip already placed in the bottom of the well. Cells were then incubated in 37° C. and 10% CO2 overnight.” left out
Once the recording was started, the voltage protocol was run at 30 second intervals for 5 minutes to get a stable baseline. […] Currents were recorded using PatchMaster software with Heka EPC10 (HEKA Electronics, Lambrecht, Germany). […]
as §2

T1 sequence (Q15858 whole entry): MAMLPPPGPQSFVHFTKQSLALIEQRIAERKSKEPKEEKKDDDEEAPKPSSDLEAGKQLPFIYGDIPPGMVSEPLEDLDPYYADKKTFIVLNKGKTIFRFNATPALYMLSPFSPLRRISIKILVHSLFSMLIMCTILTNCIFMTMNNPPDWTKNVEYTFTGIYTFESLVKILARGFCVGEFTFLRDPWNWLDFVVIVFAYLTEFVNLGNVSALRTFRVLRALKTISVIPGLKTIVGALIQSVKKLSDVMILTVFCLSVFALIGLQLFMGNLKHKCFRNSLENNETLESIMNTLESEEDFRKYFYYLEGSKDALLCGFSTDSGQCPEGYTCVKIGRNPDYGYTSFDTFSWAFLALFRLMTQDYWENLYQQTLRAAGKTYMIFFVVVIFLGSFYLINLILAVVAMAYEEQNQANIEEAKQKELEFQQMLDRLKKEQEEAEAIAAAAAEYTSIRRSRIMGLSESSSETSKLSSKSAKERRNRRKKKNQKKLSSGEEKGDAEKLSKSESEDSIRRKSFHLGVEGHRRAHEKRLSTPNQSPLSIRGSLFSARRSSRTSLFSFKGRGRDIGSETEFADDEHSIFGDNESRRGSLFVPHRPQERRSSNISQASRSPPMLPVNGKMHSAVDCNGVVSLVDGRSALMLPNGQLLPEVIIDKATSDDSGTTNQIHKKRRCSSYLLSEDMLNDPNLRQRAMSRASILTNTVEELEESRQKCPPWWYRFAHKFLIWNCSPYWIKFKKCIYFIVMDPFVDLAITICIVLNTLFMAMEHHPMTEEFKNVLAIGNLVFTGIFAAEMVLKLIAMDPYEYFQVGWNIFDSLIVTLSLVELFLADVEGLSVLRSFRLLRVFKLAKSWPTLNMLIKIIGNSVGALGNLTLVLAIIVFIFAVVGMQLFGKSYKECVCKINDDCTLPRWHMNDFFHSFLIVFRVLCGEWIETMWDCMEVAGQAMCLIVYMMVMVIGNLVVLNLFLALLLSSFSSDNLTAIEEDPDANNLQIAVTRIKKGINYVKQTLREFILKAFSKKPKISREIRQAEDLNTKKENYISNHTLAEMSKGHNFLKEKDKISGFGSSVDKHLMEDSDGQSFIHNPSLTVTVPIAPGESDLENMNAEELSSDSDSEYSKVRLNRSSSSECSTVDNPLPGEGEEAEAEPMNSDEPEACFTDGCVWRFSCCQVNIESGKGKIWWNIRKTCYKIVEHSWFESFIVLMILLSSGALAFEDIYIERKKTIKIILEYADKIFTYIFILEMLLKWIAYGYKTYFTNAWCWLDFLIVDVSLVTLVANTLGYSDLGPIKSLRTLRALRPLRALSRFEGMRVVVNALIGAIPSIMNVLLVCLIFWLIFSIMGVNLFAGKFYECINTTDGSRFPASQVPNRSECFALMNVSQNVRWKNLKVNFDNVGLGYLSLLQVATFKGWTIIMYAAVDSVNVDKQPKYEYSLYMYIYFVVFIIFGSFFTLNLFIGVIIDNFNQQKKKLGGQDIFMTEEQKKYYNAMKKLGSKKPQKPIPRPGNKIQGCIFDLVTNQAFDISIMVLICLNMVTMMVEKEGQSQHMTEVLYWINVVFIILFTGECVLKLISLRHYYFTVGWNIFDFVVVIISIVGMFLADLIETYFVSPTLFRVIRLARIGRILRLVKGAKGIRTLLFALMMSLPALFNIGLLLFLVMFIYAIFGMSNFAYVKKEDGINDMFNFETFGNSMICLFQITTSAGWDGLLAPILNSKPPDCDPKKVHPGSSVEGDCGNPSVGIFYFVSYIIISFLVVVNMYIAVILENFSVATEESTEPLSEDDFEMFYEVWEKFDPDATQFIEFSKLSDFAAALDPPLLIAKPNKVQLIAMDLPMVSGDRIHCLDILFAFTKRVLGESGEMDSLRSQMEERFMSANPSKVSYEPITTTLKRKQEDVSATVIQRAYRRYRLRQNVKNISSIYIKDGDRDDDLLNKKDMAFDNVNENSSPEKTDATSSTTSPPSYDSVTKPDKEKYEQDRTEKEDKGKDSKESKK

Compound	inhibition at 10 µM (NaV1.7 [1])	PAMPA (10^−6 cm/s) [2]	inhibition at 3 µM (NaV1.7 [1])	inhibition at 10 µM (NaV1.7 [3])
COC(=O)c1scc(C)c1NC(=O)C[P+]1(Cc2ccccc2)CCCCC1.[Br-] [Compound 8A, 1-benzyl-1-(2-((2-(methoxycarbonyl)-4-methylthiophen-3-yl)amino)-2-oxoethyl)phosphinan-1-ium Bromide]		++ (“++” (0.1-2.0 10^−6 cm/s))	70 to 90%	
COC(=O)c1scc(C)c1NC(=O)C[P+]1(Cc2ccccc2)CCCCC1 [Compound 8]				< 40%
CCC(C(=O)Nc1c(C)csc1C(=O)OC)[P+]1(Cc2ccccc2)CCCCC1 (stereo not drawn) [Compound 10A, 1-benzyl-1-(1-((2-(methoxycarbonyl)-4-methylthiophen-3-yl)amino)-1-oxobutan-2-yl)phosphinan-1-ium Formate]		+++. (“+++” (2.0-10.010^−6 cm/s))	> 90%	
COC(=O)c1scc(C)c1NC(=O)C[P+](c1ccccc1)(c1ccccc1)c1ccccc1 [Compound 19A]	70 to 95%			

Now from value to compound:

inhibition at 10 µM (NaV1.7 [1])	PAMPA (10^−6 cm/s) [2]	inhibition at 3 µM (NaV1.7 [1])	inhibition at 10 µM (NaV1.7 [3])	Compound
40 to 70%	+ (“+” (<0.1 10^−6 cm/s))			CC[P+](CC)(CC)CC(=O)Nc1c(C)csc1C(=O)OC.[Br-] [Compound 1A, triethyl(2-((2-(methoxycarbonyl)-4-methylthiophen-3-yl)amino)-2-oxoethyl) Phosphonium Bromide]
70 to 95%	+ (“+” (<0.1 10^−6 cm/s))			CCCC[P+](CCCC)(CCCC)CC(=O)Nc1c(C)csc1C(=O)OC.[Br-] [Compound 17A, tributyl(2-((2-(methoxycarbonyl)-4-methylthiophen-3-yl)amino)-2-oxoethyl) Phosphonium Bromide]
	+ (“+” (<0.1 10^−6 cm/s))	70 to 90%		CC[P+](CC)(CC)CC(=O)Nc1c(C)csc1C(=O)OC(C)(C)C.[Br-] [Compound 21A]
